Values of other authors in patent US20050255161A1, “Method for the long term stabilization of labile compounds at room temperature in pharmaceutical preparations containing water” (priority 2004, published 2005).
Like-named read-outs stand apart in the source and are kept apart here.

- solubility in aqueous systems (low acidic medium): ~10 μg's
- solubility in aqueous systems (slightly alkaline medium): ~100 μg's
SMILES: CCCCC[C@H](O)/C=C/[C@H]1[C@H](O)CC(=O)[C@@H]1CCCCCCC(=O)O [prostaglandin E1, (13E)-(15S)-11alpha, 15-dihydroxy-9-oxoprost-13-enoate]
